Measured values as given in patent US20040152740A1, “Arylglycine derivatives for use as glycine transport inhibitors” (NPS Allelix Corporation, priority 2002, published 2004).

Biological target: T1, human GlyT-2 (Homo sapiens, UniProt Q9Y345)
T1 construct: expressed in transfected cells; elsewhere 'preferably QT-6 cells derived from quail fibroblasts'
T1 sequence (Q9Y345 1-797): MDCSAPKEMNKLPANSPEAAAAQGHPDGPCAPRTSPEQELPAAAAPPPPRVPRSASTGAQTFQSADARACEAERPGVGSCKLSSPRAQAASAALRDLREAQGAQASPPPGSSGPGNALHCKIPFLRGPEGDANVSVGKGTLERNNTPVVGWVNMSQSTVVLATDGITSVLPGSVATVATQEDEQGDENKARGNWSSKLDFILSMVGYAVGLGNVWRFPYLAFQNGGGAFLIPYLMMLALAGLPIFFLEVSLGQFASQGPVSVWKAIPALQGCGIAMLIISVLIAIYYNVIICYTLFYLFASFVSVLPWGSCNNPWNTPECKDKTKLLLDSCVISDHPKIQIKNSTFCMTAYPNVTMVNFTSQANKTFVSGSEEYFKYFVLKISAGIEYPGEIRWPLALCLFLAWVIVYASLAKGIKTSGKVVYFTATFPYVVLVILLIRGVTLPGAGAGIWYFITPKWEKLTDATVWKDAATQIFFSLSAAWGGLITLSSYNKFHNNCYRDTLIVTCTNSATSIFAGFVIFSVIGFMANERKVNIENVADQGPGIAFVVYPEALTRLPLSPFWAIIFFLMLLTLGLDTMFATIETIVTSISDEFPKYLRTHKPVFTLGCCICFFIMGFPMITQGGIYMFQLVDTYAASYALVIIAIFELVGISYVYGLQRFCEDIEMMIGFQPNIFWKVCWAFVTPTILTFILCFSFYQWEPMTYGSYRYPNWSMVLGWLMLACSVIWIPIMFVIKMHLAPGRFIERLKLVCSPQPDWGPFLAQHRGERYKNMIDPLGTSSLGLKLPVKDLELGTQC
Test: Assay of transport via GlyT-2 transporters: [3H]glycine uptake by stably transfected cultured cells
Assay type: cell-based
Conditions: cells stably transfected with human GlyT-2; 50 nM [3H]glycine; ten minutes at 37° C.; read-out: GlyT1 uptake IC50
Method: This example illustrates a method for the measurement of glycine uptake by transfected cultured cells.
Cells stably transfected with human GlyT-2 (the homolog of the rat GlyT-2 described by Liu et al., J. Biological Chemistry, 268, 1993:22802-22808) were washed twice with HEPES buffered saline (HBS). The cells were then incubated ten minutes at 37° C., after which a solution containing 50 nM [^3H]glycine (17.5 Ci/mmol) and either (a) no potential competitor, (b) […] or (c) a concentration of a candidate drug. A range of concentrations of the candidate drug was used to generate data for calculating the concentration resulting in 50% of the effect (e.g., the IC50's which are the concentration of drug inhibiting glycine uptake by 50%). The cells were then incubated another ten minutes at 37° C., after which the cells were aspirated and washed three times with ice-cold HBS. The cells were solubilized in scintillant, shaken for thirty minutes, and the radioactivity in the cells was counted using a scintillation counter. Data were compared between the same cells contacted and not contacted by the candidate agent.

| IC50 [nM] | Compound |
| --- | --- |
| 115 | Cc1cccc(C)c1NC(=O)C(NC(=S)Nc1ccc(OCCN(C)C)cc1C(F)(F)F)c1ccccc1 (stereo not shown) [Example E33.8, N-(2.6-dimethylphenyl)-2-[3-(4-N,N-dimethylaminoethoxy-2-trifluoromethylphenyl)-thioureido]-2-phenyl acetamide] |
| 48 | Cc1cccc(C)c1NC(=O)C(NC(=S)Nc1ccccc1S(=O)(=O)N(C)C)c1ccccc1 (stereo not shown) [Example E33.2, N-(2,6-dimethylphenyl)-2-[3-(2-N,N-dimethylsulphonamidophenyl)-thioureido]-2-phenyl acetamide] |
| 14.2 | Cc1cccc(C)c1NC(=O)C(NC(=S)Nc1ccc(S(=O)(=O)N(C)C)cc1[N+](=O)[O-])c1ccccc1 (stereo not shown) [Example E33.5] |
| 34.4 | COc1ccc(NC(=S)NC(C(=O)Nc2c(C)cccc2C)c2ccccc2)c([N+](=O)[O-])c1 (stereo not shown) [Example E33.6, N-(2,6-dimethylphenyl)-2-[3-(4-methoxy-2-nitrophenyl)-thioureido]-2-phenyl acetamide] |
| 182 | Cc1cccc(C)c1NC(=O)C(NC(=S)Nc1ccc(OCCN(C)C)cc1[N+](=O)[O-])c1ccccc1 (stereo not shown) [Example E33.4, N-(2.6-dimethylphenyl)-2-[3-(4-(2-N,N-dimethylamino)ethoxy-2-nitrophenyl)-thioureido]-2-phenyl acetamide] |

More lines, now with the values behind:

| Compound | IC50 [nM] |
| --- | --- |
| CCOc1ccc(NC(=S)NC(C(=O)Nc2ccccc2C)c2ccccc2)c([N+](=O)[O-])c1 (stereo not shown) [Example E4.3, N-(2-methylphenyl)-2-[3-(4-ethoxy-2-nitrophenyl)-thioureido]-2-phenyl acetamide] | 172 |
| CCOc1ccc(NC(=S)NC(C(=O)Nc2c(C)cccc2C)c2ccccc2)c([N+](=O)[O-])c1 (stereo not shown) [Example E33.1, N-(2,6-dimethylphenyl)-2-[3-(4-ethoxy-2-nitrophenyl)-thioureido]-2-phenyl acetamide] | 49.2 |
| COc1ccc(NC(=S)NC(C(=O)Nc2ccccc2C)c2ccccc2)c([N+](=O)[O-])c1 (stereo not shown) [Example E4.4, N-(2-methylphenyl)-2-[3-(2-nitro-4-methoxyphenyl)-thioureido]-2-phenyl acetamide] | 83.8 |
| COc1ccc(NC(=S)NC(C(=O)Nc2c(C)cccc2Cl)c2ccccc2)c([N+](=O)[O-])c1 (stereo not shown) [Example E29.1, N-(2-chloro-6-methylphenyl)-2-[3-(4-methoxy-2-nitrophenyl)-thioureido]-2-phenyl acetamide] | 22.8 |
| COc1ccc(NC(=S)N[C@H](CC(C)C)C(=O)Nc2c(C)cccc2C)c([N+](=O)[O-])c1 [E51.1*] | 90.8 |
| COc1ccc(NC(=S)NC(CC(C)C)C(=O)Nc2c(C)cccc2C)c([N+](=O)[O-])c1 (stereo not shown) [Example E51.3, N-(2.6-dimethylphenyl)-2-[3-(4-methoxy-2-nitrophenyl)-thioureido]-4-methylpentanamide] | 112 |
| COc1ccc(NC(=S)NC(C(=O)Nc2c(C)cccc2C(C)C)c2ccccc2)c([N+](=O)[O-])c1 (stereo not shown) [Example E28.1, N-(2-isopropyl-6-methylphenyl)-2-[3-(4-methoxy-2-nitrophenyl)-thioureido]-2-phenyl acetamide] | 52.2 |
| Cc1ccccc1NC(=O)[C@H](NC(=S)Nc1ccccc1[N+](=O)[O-])c1ccccc1 [Example E4.2] | 77.4 |
